From patent US11453664B2, “Thymoquinone/harmaline and related reaction products” (Ankh Life Sciences Limited, priority 2018, dated 2022)

Tests used:
MIN-6 cell line [1] = experiment: Glucose stimulated insulin secretion assay, Example 5; type: cell-based, mouse; conditions: MIN-6, glucose 2, 10 and 20 mM, 1 hour
Description: In this test, a glucose stimulated insulin secretion assay was performed using the MIN-6 cell line and compounds C1 and C2 of Example 4. The test details and assay conditions are set forth below.
(§1) The cells were washed with KRB containing 0.1% BSA and starved for 1 hour in 2 mM glucose-KRB/BSA at 37° C. in 5% CO2. Following starvation, the cells were treated with or without the compounds at varying glucose concentrations of 2 mM, 10, mM, and 20 mM in KRB/BSA for 1 hour at 37° C. in 5% CO2. The amount of secreted mouse insulin was measured in the KRB/BSA incubation buffer using the mouse insulin ELISA kit from Mercer EXPert Assays. The cells were then lysed for protein quantification. The data presented in FIGS. 5-6 illustrate the secreted insulin test results for glucose and diazoxide, while FIGS. 7-9 (compound C1) and 10-12 (compound C2) illustrate the secreted insulin test results using C1 and C2. The data presented in FIGS. 7-12 are presented as the fold changes in the secreted insulin per milligram protein per hour, compared to the cell control.

MIN-6 cell line [2] = experiment: Glucose stimulated insulin secretion assay, Example 7; type: cell-based, mouse; conditions: 2 hours
Description: In this test, another glucose stimulated insulin secretion assay was performed using two test compounds, namely C1 (MW about 378) and C3 (MW about 540). The MIN-6 cell line was used and the test details and assay conditions are set forth below.
The cells were revived and maintained in T-flasks. Upon reaching the required confluency, the cells were seeded in 96-well plates. The seeded cells were serum-starved in the presence of glucose for 30 minutes at 37° C. in 5% CO2. Following starvation, the cells were treated with or without the compounds at the varying glucose concentrations in KRB for 2 hours at 37° C. in 5% CO2. The cell supernatants were collected and tested for insulin secretion using the mouse insulin ELISA kit from Mercer EXPert Assays.

MIN-6 cell line [3] = experiment: Glucose stimulated insulin secretion assay, Example 6; type: cell-based, mouse; conditions: MIN-6, 100 nM, 10 mM of glucose, 1 hour
Description: In this test, a glucose stimulated insulin secretion assay was performed using the MIN-6 cell line and a compound mixture of compounds VIIID and VIIIF (MW about 540), referred to as C3. The test details and assay conditions are set forth below.
as §1, with “data is” for “data”, “13 (gliclazide)” for “5-6 illustrate the secreted insulin test results for glucose”, “14-16 (C3)” for “diazoxide, while FIGS. 7-9 (compound C1) and 10-12 (compound C2) illustrate the secreted insulin test results using C1 and C2. The data presented in FIGS. 7-12 are presented”, “change” for “changes”

[4] = test system: NOD mouse model of diabetes; experiment: NOD mouse model of diabetes, TQ 725 as single agent; type: in vivo, mouse (NOD/ShiLtJ)
Description: This test was designed to evaluate the in vivo activity of the TQ-harmaline reaction product (referred to as “TQ 725”), which was a mixture of compounds I-IV and VI (MW about 378), V and VII (MW about 360), and VIIID and VIIIF (MW about 540), as single agent in the NOD mouse model of diabetes. […] The female NOD mice show evidence of diabetes onset by age week 12 and 70% presenting with diabetes (non-fasting plasma glucose higher than 250 mg/dl) by age week 20. The significant endpoint is assessment of weekly blood glucose levels.
The pancreatic tissues from the test mice were assayed by conventional insulin staining according to the following ratings: 0—no staining on islet cells; 1—of islets with positive stains, stain cells are minimal in number; 2—of islets with positive stain, stain cells are less than 50% of the cells; 3—of the islets with positive stains, stain cells are greater than 50% of the cells.
FIGS. 1 and 2 illustrate the body weight and blood glucose level results collected during the test. In each of these Figures, graph A refers to Group 1, the vehicle control (PO) QD to end; graph B refers to Group 2, 725.001 100 mg/kg days 1-27, followed by 400 mg/kg days 28 to end (PO); graph C refers to Group 3, 725.001 200 mg/kg (PO) QD to end; and graph D refers to Group 4, metformin 600 mg/kg (in H2O) Ad libitum days 1-8, followed by 600 mg/kg (PO) QD days 9 to end.

[5] = Subsequent investigations of activity of the components of TQ 725; conditions: context: diabetes; no method given

## CC1=NS(=O)(=O)c2cc(Cl)ccc2N1 [Diazoxide]
MIN-6 cell line [1]
  effect on insulin secretion: significant inhibition of insulin secretion

## Cc1ccc(S(=O)(=O)NC(=O)NN2CC3CCCC3C2)cc1 (centres unmarked) [Gliclazide]
MIN-6 cell line [2]; MIN-6, glucose 2 mM, 100 μM
  insulin secretion at the lower glucose concentration: enhanced insulin secretion was observed
MIN-6 cell line [2]; MIN-6, glucose 25 mM
  insulin secretion at the higher glucose concentration: saturation effect
MIN-6 cell line [3]
  effect on insulin secretion: enhanced insulin secretion

## CN(C)C(=N)N=C(N)N [Metformin]
[4]; Group 4: 600 mg/kg, data not deemed reliable
  body weight: trended downwardly
[4]; Group 4: ad libitum days 1-8, 600 mg/kg PO days 9-56, rating scale 0-3
  insulin staining of pancreatic tissues, mean value: 0.50

## COc1ccc2c(c1)=NC1C(/C=C3/C=C(C(C)C)C(=O)C=C3C)=NCCC=21 (centres unmarked) [VII]
[5]
  relative activity among the components of TQ 725: most active

## COc1ccc2c(c1)=NC1C(CC3(O)C=C(C(C)C)C(=O)C=C3C)=NCCC=21 (centres unmarked) [VI]
[5]
  relative activity among the components of TQ 725: most active
